Test system: fresh human Peripheral Blood Mononuclear Cells (hPBMCs)
Test: Cytokine production (IFNα, IL-6, IL-1β) by hPBMCs in basal condition and after TLR-9 stimulation (ODN2216)
Type: cell-based
Conditions: TLR-9-stimulated hPBMCs, 24 h; PD0325901 1 μM + ATO 2.5 μM

O=C(NOC[C@H](O)CO)c1ccc(F)c(F)c1Nc1ccc(I)cc1F [PD0325901]
production of IFNα after inhibition by ATO: did not restore
